Numbered stars: 1 amine (or outer) side, 2 acyl side, 3 side chain; on linkers, the order of the positions; unused ones are H or OH. Bridge positions count the residues as written; N and C are the ends. Square brackets hold non-standard residues; d marks the D form. Peptide text beside a SMILES is read from it. * marks the point of attachment. X1 = O=C([C@H](CCCCCC=[*:3])N[*:1])[*:2]; Nle = CCCC[C@H](N)C(=O)O; BrAc = O=C(CBr)*
Tests used:
[1] = system: E. coli lptD4213 (imp); test: Growth assay (OD600) with outer membrane-permeable E. coli lptD4213 (imp); format: cell-based
Protocol: Growth assays were performed to assess the in vitro cytotoxicity of peptides. The experiments were executed under sterile conditions. For each assay, 20 mL of fresh MOPS medium was prepared (Teknova Inc MOPS EZ Rich Defined Medium Kit | M2105: 40 mM MOPS, 4 mM Tricine, 0.01 mM FeSO4, 9.5 mM NH4Cl, 0.276 mM […]
MOPS medium with Streptomycin (30 μg/mL) and incubated overnight at 200 rpm and 37°C. The next day, the […]
peptide stocks in DMSO were diluted to four times the desired highest concentration to be measured in MOPS medium. The peptide dilutions were vortexed and briefly centrifuged. 50 μL of MOPS medium was added to each well of a Corning® 96-well Clear Flat Bottom Polystyrene TC-treated Microplate. A twofold dilution series was performed by adding 50 μL of the diluted peptide to the top row, mixing it and taking 50 μL to the next row. At each step the solution was resuspended five times. This was repeated until the last row which was skipped in order to obtain a reference measurement. After 2-3 h, the E.coli lptD4213 (imp) pre-culture was diluted to an OD600 of 0.00005. Then, 50 μL of diluted culture were added to each well and the plate sealed using a lid and parafilm. The OD600 was measured every 15 min over a period of more than 20 h (continuously shaking, 37°C) using a BioTek Synergy H1 plate reader. The obtained data were analyzed and relative growth curves plotted with GraphPad Prism 8. The assays were performed as technical triplicates. A single overnight pre-culture was used to prepare the diluted MOPS culture used in the growth assay. […]

[2] = system: E. coli lptD4213 (imp) cells; test: Microscopy and morphology assay (cell length); format: cell-based; conditions: 17fα 100 μM
Protocol: 1.8 Microscopy and morphology assay
Morphology assays were executed to assess the physiological change of E.coli cells upon exposure to different peptides. All steps in this protocol were performed under sterile conditions. For each assay, 20 mL of fresh MOPS medium was prepared (40 mM MOPS, 4 mM tricine, 0.01 mM FeSO-4, 9.5 mM NH4Cl, 0.276 mM K2SO4, 0.5 […]
The next day, the overnight culture […]
was diluted to an OD600 of 0.1. […]
min, after which the supernatant was discarded.
The frozen samples were thawed and 3 μL of […]
morphology of the cells was investigated. […]
accessed on February 2020).
The FtsQ(50˗276) stock solution was diluted to
NH4HCO3 (pH 7.6), 150 mM NaCl).
The gel was placed in the container
Colloidal Coomassie staining solution […]
was washed 3x for 30 min with water.
The gel pieces were washed with 200 μL water by vortex mixing for 30 s. Then the water was discarded. The gel pieces were then washed with […]
discarded and the procedure repeated once.
The supernatants were discarded and 200 μL of 100 %
ACN added, mixed and incubated for 30 s. […] They were then

[3] = molecular target: FtsQ(50–276) (Escherichia coli, UniProt P06136); format: biochemical, E. coli; parameters: pET16b FtsQ(50˗276), a His6 fusion; made in house; host or cells: Escherichia coli BL21 DE3; conditions: peptide 125 μM, FtsQ(50–276) 50 μM, 37 °C, 1 or 3 h
Chain of FtsQ(50–276) (P06136 50-276): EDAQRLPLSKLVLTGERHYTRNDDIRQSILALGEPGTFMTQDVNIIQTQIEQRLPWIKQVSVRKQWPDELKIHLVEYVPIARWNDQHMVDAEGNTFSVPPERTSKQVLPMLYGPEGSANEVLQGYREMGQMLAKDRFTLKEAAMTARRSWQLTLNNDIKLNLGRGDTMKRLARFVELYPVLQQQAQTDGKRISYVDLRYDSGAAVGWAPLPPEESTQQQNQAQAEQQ
Protocol: 1.5 Protein modification assay
To determine the reactivity of the different modifiers FtsQ(50˗276) was diluted to a concentration of 100 µM in 20 mM NH4HCO3 buffer (pH 7.6, 150 mM NaCl). The individual peptides were diluted to a concentration of 250 μM in the same buffer. Equal volumes of both solutions were mixed and incubated at 37 °C for the given time period (1 h or 3 h). The reaction was quenched using 5x SDS sample buffer (pH 6.8, 1.875 g TRIS-Cl, 25 mL glycerol, 5 g SDS, 12.5 mL β-mercaptoethanol, 0.5 % bromphenol blue and add 50 mL ddH2O). Samples were heated to 96 °C for 2 min and subsequently analysed by 17 % tris/tricine PAGE (15 min at 90 V and then 3:45 h at 150 V). PageRuler™ Prestained Protein Ladder, 10 to 180 kDa (Thermo Scientific™) was used as a ladder.
Staining was performed using standard Coomassie Staining Solution (40 mL EtOH, 0.3 g Coomassie Blue R250, 0.3 g Coomassie Blue G250, ad 100 mL ddH2O.) and then destained using water.
17 % Tris/Tricine gel (2x):
Running gel: 1.6 mL H2O, 5.5 mL AB-mix, 2.5 mL Buffer A, 100 μL 10% APS, 10 μL 1% TEMED Stacking gel: 2.1 mL H2O, 0.5 mL AB-mix, 0.38 mL Buffer A, 50 μL 10% APS, 5 μL 1% TEMED […]
Buffer A (4x) pH 8.45 3M Tris, 0.3 % SDS; Anode Buffer (10x) pH 8.8, 3M Tris; Cathode buffer (10x) 1M Tris, […]

**Q.** Which results are given for CCCC[C@@H]1NC(=O)[C@H](CO)NC(=O)[C@H](CC(C)C)NC(=O)[C@H](CCC(=O)O)NC(=O)[C@H](CC(N)=O)NC(=O)[C@@H](NC(=O)[C@H](C)NC(C)=O)CCCCCC=CCCCCC[C@@H](C(=O)N[C@@H](CCCCNC(=O)CBr)C(=O)N[C@@H](Cc2ccccc2)C(=O)N[C@@H](Cc2ccc(O)cc2)C(=O)N[C@@H](CCCNC(=N)N)C(=O)N[C@@H](CC(C)C)C(N)=O)NC(=O)CNC(=O)[C@@H]2CCCN2C(=O)[C@H](CCCNC(=N)N)NC(=O)[C@H]([C@@H](C)O)NC1=O [17fα] (Ac-A[X1]NELS[Nle]TRPG[X1]K(BrAc)FYRL-NH2; staple 2-12)?
**A.** lowest concentration with inhibitory effect on growth ([1]; concentration-dependent effect on growth after 15 h, highest tested concentration 100 μM, n = 3 replicates): 12.5 µM; effect on bacterial growth (OD600) ([1]; inhibitor c = 50 μM, OD600 every 15 min over 22 h, n = 3 technical replicates): prevents bacterial growth; cell length median (1h) ([2]; 1 h): 4.7 μm; cell length mean (1h) ([2]; 1 h, phase contrast microscopy, ImageJ/ObjectJ): 5.3 μm; cell length mean (6h) ([2]; 6 h): 12.4 μm; cell length median (6h) ([2]; 6 h): 11.3 μm; specificity of FtsQ(50–276) modification (number of up-shifted bands) [3]: robust and selective covalent modification
